Structures are written as SMILES.

One series is described as follows: in vivo. Particulars: mouse, oral, ddy male mice, deaths counted at 10 days, Weil method, read-out: Acute toxicity LD50. The source says:
ddy male mice (weighing 18-23 g, one group: 5 animals) were fasted overnight, and thereto was orally administered a suspension of the test compounds in 1% arabic gum solution.

The test system of series [1] is Platelet aggregation (arachidonate). Description: Platelet aggregation inhibitory activity, ex vivo after oral administration to guinea pigs, sodium arachidonate as aggregating agent. The series is classed as in vivo, Hartley strain male guinea pigs. As to conditions: Cavia porcellus, oral, guinea pig, blood collected after 3 hours, 1.0 mM sodium arachidonate (50 μl), 50% inhibitory rate, read-out: Platelet aggregation inhibitory activity Arachidonate ED50. On the procedure: (§1) Hartley strain male guinea pigs (weighing 300-350 g, one group: three animals) were fasted overnight, and to the animals were orally administered a solution or suspension of the test compounds in corn oil-10% arabic gum. […] The citrated blood thus obtained was centrifuged at 1,700 rpm for 10 minutes, and a platelet-rich plasma (PRP) was obtained from the supernatant. After isolating PRP, the remaining blood was further centrifuged at 3,000 rpm for 10 minutes, and a platelet-poor plasma (PPP) was obtained from the supernatant.
(§2) The PRP (450 μl) thus obtained was incubated at 37° C. for 3 minutes, and thereto was added 1.0 mM sodium arachidonate (50 μl) as an aggregating agent, and then the platelet aggregation thereof was measured with Platelet Aggregation Profiler® (Model PAP-3, manufactured by Bio Data Corp.) while using the PPP obtained above as a blank. As a control, as to animals to which no test compound was administered, the platelet aggregation rate was measured likewise.
(§3) The platelet aggregation inhibitory rate was calculated by the following equation. [formula]

Series [2] concerns Platelet aggregation (collagen). The series is described as follows: Platelet aggregation inhibitory activity, ex vivo after oral administration to guinea pigs, collagen as aggregating agent. The series is classed as in vivo, Hartley strain male guinea pigs. Particulars: Cavia porcellus, oral, guinea pig, blood collected after 3 hours, 100 μg/ml collagen suspension (50 μl), 50% inhibitory rate, read-out: Platelet aggregation inhibitory activity Collagen ED50. As for the experimental part: as §1, §2, §3
Moreover, the above method was repeated except that 100 μg/ml collagen suspension (50 μl) was used as an aggregating agent instead of sodium arachidonate.

The LD50 is the dose expected to kill half of the subjects tested. Usually ED50 stands for the midpoint of the dose-response relation. `C#CCOC(=O)Cn1cccc1-c1nc(-c2ccc(OC)cc2)c(-c2ccc(OC)cc2)s1` [Ex. 30, Propargyl 2-[4,5-bis(4-methoxyphenyl)thiazol-2-yl]pyrrole-1-acetate]: the LD50 at 240 h in the series “in vivo” was > 3000 mg/kg. Besides, the results for the ED50 in series [1] and in series [2] were 0.039 mg/kg and 0.068 mg/kg, respectively.

Turning to `COc1ccc(-c2nc(-c3cccn3CC(=O)OCc3ccccc3)sc2-c2ccc(OC)cc2)cc1` [Ex. 31, benzyl 2-[4,5-bis(4-methoxyphenyl)thiazol-2-yl]pyrrole-1-acetate], in “in vivo”, the LD50 at 240 h is > 3000 mg/kg. For the same molecule, the ED50 in series [1] is 0.11 mg/kg; in series [2] it was 0.16 mg/kg.

Turning to `CCOCn1cccc1-c1nc(-c2ccc(OC)cc2)c(-c2ccc(OC)cc2)s1` [Ex. 36, 4,5-Bis(4-methoxyphenyl)-2-(1-ethoxymethylpyrrol-2-yl)thiazole], the LD50 at 240 h in the series “in vivo” was > 3000 mg/kg. The 50% effective dose (ED50) in series [1] turned out to be 0.45 mg/kg; in series [2], 0.98 mg/kg.

In the case of `CCCOCn1cccc1-c1nc(-c2ccc(OC)cc2)c(-c2ccc(OC)cc2)s1` [Ex. 37, 4,5-Bis(4-methoxyphenyl)-2-(1-n-propoxymethylpyrrol-2-yl)thiazole], in the series “in vivo”, the LD50 at 240 h was > 3000 mg/kg. The ED50 came out at 0.49 mg/kg in series [1] and 0.61 mg/kg in series [2].

With `CCOCCn1cccc1-c1nc(-c2ccc(OC)cc2)c(-c2ccc(OC)cc2)s1` [Ex. 38, 4,5-bis(4-methoxyphenyl)-2-[1-(2-ethoxyethyl)pyrrol-2-yl]thiazole], the LD50 at 240 h in “in vivo” was > 3000 mg/kg. The ED50 in series [1] stood at 0.09 mg/kg; in series [2], 0.29 mg/kg.

On to `C=COCCn1cccc1-c1nc(-c2ccc(OC)cc2)c(-c2ccc(OC)cc2)s1` [Ex. 39, 4,5-bis(4-methoxyphenyl)-2-[1-(2-vinyloxyethyl)pyrrol-2-yl]thiazole], for which the LD50 at 240 h in “in vivo” is > 3000 mg/kg. Moreover, the ED50 in series [1] was 0.33 mg/kg; in series [2] it was 0.49 mg/kg.

Consider `CCSCCn1cccc1-c1nc(-c2ccc(OC)cc2)c(-c2ccc(OC)cc2)s1` [Ex. 40, 4,5-bis(4-methoxyphenyl)-2-[1-(2-ethylthioethyl)pyrrol-2-yl]thiazole], for which the LD50 at 240 h in “in vivo” was > 3000 mg/kg. Besides, the ED50 in series [1] amounted to 0.41 mg/kg; in series [2], 0.51 mg/kg.

For the molecule `CCOCCCn1cccc1-c1nc(-c2ccc(OC)cc2)c(-c2ccc(OC)cc2)s1` [Ex. 41, 4,5-bis(4-methoxyphenyl)-2-[1-(3-ethoxypropyl)pyrrol-2-yl]thiazole], the median lethal dose (LD50) at 240 h in “in vivo” was > 3000 mg/kg. For the same molecule, the ED50 was 0.3 mg/kg in series [1] and 0.35 mg/kg in series [2].
